From patent publication US10004701B2, “Methods and compositions for treating infection” (UNIVERSITY OF ROCHESTER, priority 2012, dated 2018) come the findings set out here.

The structures appear in SMILES notation. Where a name gives a salt, the structure may show the parent alone. Read-outs that look alike come from different tables or passages of the source.

Holding throughout (assay): AK assay 384-well format, Prestwick library screening
One assay concerns E. faecium. It is filed as cell-based, Enterococcus faecium. Conditions: 50 μM final drug concentration; for fold induction at 50 µM: Enterococcus faecium, 3 h.
The test system of assay [1] is S. aureus strain USA300-0114. The class given is cell-based, Staphylococcus aureus. Particulars: 50 μM final drug concentration; for fold induction at 50 µM: Staphylococcus aureus, USA300, 3 h.
The next assay deals with P. aeruginosa. It is filed as cell-based, Pseudomonas aeruginosa. Conditions: 50 μM final drug concentration; for fold induction at 50 µM: Pseudomonas aeruginosa, 3 h.
The next assay concerns E. coli. It is filed as cell-based, Escherichia coli. Conditions: 50 μM final drug concentration; for fold induction at 50 µM: Escherichia coli, 3 h.
The next assay relates to E. cloacae. It is filed as cell-based, Enterobacter cloacae. Conditions: 50 μM final drug concentration; for fold induction at 50 µM: Enterobacter cloacae, 3 h.
The test system of assay [2] is A. baumannii strain 98-37-09. The class given is cell-based, Acinetobacter baumannii. Particulars: 50 μM final drug concentration; for fold induction at 50 µM: Acinetobacter baumannii, 983709, 3 h.
The test system of a further assay is K. pneumoniae. It is filed as cell-based, Klebsiella pneumoniae. Particulars: 50 μM final drug concentration; for fold induction at 50 µM: Klebsiella pneumoniae, 3 h.
The mark [3] stands for this setting: planktonic, cutoff for positive 3-fold increase.
The mark [4] stands for this setting: planktonic, cutoff for positive-scoring molecules 3-fold increase, read-out: AK-based Prestwick Library Screening Results, E. faecium (fold increase in extracellular AK activity).
Where [5] appears, read: planktonic, cutoff for positive-scoring molecules 3-fold increase, read-out: AK-based Prestwick Library Screening Results, S. aureus (fold increase in extracellular AK activity).
Where [6] appears, read: planktonic, cutoff for positive-scoring molecules 3-fold increase, read-out: AK-based Prestwick Library Screening Results, P. aeruginosa (fold increase in extracellular AK activity).
[7] abbreviates: planktonic, cutoff for positive-scoring molecules 3-fold increase, read-out: AK-based Prestwick Library Screening Results, E. coli (fold increase in extracellular AK activity).
The mark [8] stands for this setting: planktonic, cutoff for positive-scoring molecules 3-fold increase, read-out: AK-based Prestwick Library Screening Results, E. cloacae (fold increase in extracellular AK activity).
The mark [9] stands for this setting: planktonic, cutoff for positive-scoring molecules 3-fold increase, read-out: AK-based Prestwick Library Screening Results, A. baumannii (fold increase in extracellular AK activity).
[10] abbreviates: planktonic, cutoff for positive-scoring molecules 3-fold increase, read-out: AK-based Prestwick Library Screening Results, K. pneumoniae (fold increase in extracellular AK activity).

Turning to `CC(=O)NC1CCSC1=O` (racemic) [N-Acetyl-DL-homocysteine Thiolactone], the “AK-based Prestwick Library Screening Results, E. faecium (fold increase in extracellular AK activity)” value in the assay with E. faecium (setting [3]) is on record as 0.8. Besides, the “AK-based Prestwick Library Screening Results, S. aureus (fold increase in extracellular AK activity)” value in assay [1] (setting [3]) is 0.4. Besides, the “AK-based Prestwick Library Screening Results, P. aeruginosa (fold increase in extracellular AK activity)” value with P. aeruginosa (setting [3]) is 0.3. Also, the “AK-based Prestwick Library Screening Results, E. coli (fold increase in extracellular AK activity)” value in the assay on E. coli (setting [3]) came out at 0.5. Also, the “AK-based Prestwick Library Screening Results, E. cloacae (fold increase in extracellular AK activity)” value in the assay on E. cloacae (setting [3]) is recorded as 0.7. Besides, the “AK-based Prestwick Library Screening Results, A. baumannii (fold increase in extracellular AK activity)” value in assay [2] (setting [3]) is 0.4. Further, the “AK-based Prestwick Library Screening Results, K. pneumoniae (fold increase in extracellular AK activity)” value in the assay with K. pneumoniae (setting [3]) came to 0.4.
In the case of `CN1CCN(CCCN2c3ccccc3Sc3ccc(C(F)(F)F)cc32)CC1` [Trifluoperazine dihydrochloride], the fold induction at 50 µM is 1.1 in the assay on E. faecium (planktonic E. faecium, 384-well, cutoff for positive-scoring molecules 3-fold increase, read-out: AK-based Prestwick Library Screening Results: E. faecium (increase in extracellular AK activity)); 1.2 in assay [1] (planktonic S. aureus, 384-well, cutoff for positive-scoring molecules 3-fold increase, read-out: AK-based Prestwick Library Screening Results: S. aureus (increase in extracellular AK activity)); 1.4 in the assay with P. aeruginosa (planktonic P. aeruginosa, 384-well, cutoff for positive-scoring molecules 3-fold increase, read-out: AK-based Prestwick Library Screening Results: P. aeruginosa (increase in extracellular AK activity)); 1.7 in the assay with E. coli (planktonic E. coli, 384-well, cutoff for positive-scoring molecules 3-fold increase, read-out: AK-based Prestwick Library Screening Results: E. coli (increase in extracellular AK activity)); 1.3 in the assay with E. cloacae (planktonic E. cloacae, 384-well, cutoff for positive-scoring molecules 3-fold increase, read-out: AK-based Prestwick Library Screening Results: E. cloacae (increase in extracellular AK activity)); 3.4 in assay [2] (planktonic A. baumannii, 384-well, cutoff for positive-scoring molecules 3-fold increase, read-out: AK-based Prestwick Library Screening Results: A. baumannii (increase in extracellular AK activity)). Moreover, the fold induction at 50 µM in the assay with K. pneumoniae (planktonic K. pneumoniae, 384-well, cutoff for positive-scoring molecules 3-fold increase, read-out: AK-based Prestwick Library Screening Results: K. pneumoniae (increase in extracellular AK activity)) came to 1.5.
For `CC[C@]12CCCN3CCc4c(n(c5ccccc45)[C@](O)(C(=O)OC)C1)[C@@H]32` [Epivincamine], the “AK-based Prestwick Library Screening Results, E. faecium (fold increase in extracellular AK activity)” value in the assay with E. faecium (planktonic, […]) stood at 1.0. The “AK-based Prestwick Library Screening Results, S. aureus (fold increase in extracellular AK activity)” value in assay [1] (planktonic, […]) amounted to 1.0. Moreover, in the assay on P. aeruginosa (planktonic, […]), the “AK-based Prestwick Library Screening Results, P. aeruginosa (fold increase in extracellular AK activity)” value is on record as 1.2. For the same compound, the “AK-based Prestwick Library Screening Results, E. coli (fold increase in extracellular AK activity)” value in the assay on E. coli (planktonic, […]) was found to be 1.3. Moreover, the “AK-based Prestwick Library Screening Results, E. cloacae (fold increase in extracellular AK activity)” value with E. cloacae (planktonic, […]) is recorded as 1.6. The “AK-based Prestwick Library Screening Results, A. baumannii (fold increase in extracellular AK activity)” value in assay [2] (planktonic, […]) worked out at 1.2. In addition, the “AK-based Prestwick Library Screening Results, K. pneumoniae (fold increase in extracellular AK activity)” value in the assay with K. pneumoniae (planktonic, […]) is recorded as 1.2.
With `Nc1ccc(S(N)(=O)=O)cc1` [Sulfanilamide], the fold induction at 50 µM in the assay with E. faecium (setting [4]) was found to be 0.9; in assay [1] (setting [5]) it was 0.4; in the assay on P. aeruginosa (setting [6]), 0.5; in the assay on E. coli (setting [7]), 0.5; with E. cloacae (setting [8]), 0.4; in assay [2] (setting [9]) it was 1.5. The fold induction at 50 µM with K. pneumoniae (setting [10]) was determined as 0.6.
Regarding `CO/N=C(\C(=O)N[C@@H]1C(=O)N2C(C(=O)O)=C(C[N+]3(C)CCCC3)CS[C@H]12)c1csc(N)n1` [Cefepime hydrochloride], the fold induction at 50 µM in the assay with E. faecium (planktonic E. faecium, positive cutoff 3-fold increase, read-out: AK-based Prestwick library screening result, E. faecium (fold increase in extracellular AK activity)) was 1; in assay [1] (planktonic S. aureus, positive cutoff 3-fold increase, read-out: AK-based Prestwick library screening result, S. aureus (fold increase in extracellular AK activity)) it was 3.1; in the assay on P. aeruginosa (planktonic P. aeruginosa, positive cutoff 3-fold increase, read-out: AK-based Prestwick library screening result, P. aeruginosa (fold increase in extracellular AK activity)), 15.6; in the assay with E. coli (planktonic E. coli, positive cutoff 3-fold increase, read-out: AK-based Prestwick library screening result, E. coli (fold increase in extracellular AK activity)) it was 19.3; in the assay on E. cloacae (planktonic E. cloacae, positive cutoff 3-fold increase, read-out: AK-based Prestwick library screening result, E. cloacae (fold increase in extracellular AK activity)), 1.9; in assay [2] (planktonic A. baumannii, positive cutoff 3-fold increase, read-out: AK-based Prestwick library screening result, A. baumannii (fold increase in extracellular AK activity)), 3.4. Besides, the fold induction at 50 µM with K. pneumoniae (planktonic K. pneumoniae, positive cutoff 3-fold increase, read-out: AK-based Prestwick library screening result, K. pneumoniae (fold increase in extracellular AK activity)) was 4.9.
As to `CC(C(=O)O)c1cccc(Oc2ccccc2)c1` (stereo not drawn) [Fenoprofen calcium salt dihydrate], the fold induction at 50 µM stood at 0.9 in the assay with E. faecium (setting [4]); 0.8 in assay [1] (setting [5]); 0.8 in the assay on P. aeruginosa (setting [6]); 0.8 in the assay on E. coli (setting [7]); 1.4 in the assay with E. cloacae (setting [8]); 0.8 in assay [2] (setting [9]). In addition, the fold induction at 50 µM in the assay with K. pneumoniae (setting [10]) was 0.7.
